Test results reported in patent publication US20240067662A1, “KRAS INHIBITORS” (Bristol-Myers Squibb Company, priority 2022, published 2024).

Molecular target: GMPPNP-loaded KRAS G12C (Homo sapiens, UniProt P01116, G12C)
Experiment: KRAS G12C RAF Disruption Assay (HTRF)
Assay type: biochemical
Conditions: recombinant GMPPNP-loaded KRAS G12C (5 nM), 20 min with compound; GST-RAF1 RBD (9 nM); HTRF signal; read-out: KRASG12C RAF Disruption Assay (IC50)
Procedure, shortened: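 The read-out is an HTRF 520/495 emission ratio, with IC50 taken from dose-response curves. Compound was first incubated for 20 min at room temperature with active-state KRAS G12C (GMPPNP, 5 nM) in Tris pH 7.5/NaCl/MgCl2/DTT/BSA. RAF1 RBD-GST (9 nM, 20 min) and SA-Tb (0.25 nM, 3 h) were added in turn.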

Sequence of GMPPNP-loaded KRAS G12C (P01116 1-188 isoform P01116-2 G12C): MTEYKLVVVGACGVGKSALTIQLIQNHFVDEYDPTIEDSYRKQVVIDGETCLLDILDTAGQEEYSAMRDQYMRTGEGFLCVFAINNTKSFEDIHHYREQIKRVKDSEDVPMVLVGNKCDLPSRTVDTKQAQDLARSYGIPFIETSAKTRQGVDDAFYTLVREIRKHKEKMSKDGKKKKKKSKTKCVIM

| SMILES | IC50 [nM] |
| --- | --- |
| N#CC[C@H]1CN(c2nc(OC[C@@]34CCCN3C[C@H](F)C4)nc3c(F)c(-c4ccccc4C4CC4)ncc23)CCN1C(=O)/C(F)=C/c1nccs1 [Compound 80, 2-((2S)-4-(7-(2-cyclopropylphenyl)-8-fluoro-2-(((2R, 7aS)-2-fluorotetrahydro-1H-pyrrolizin-7a(5H)-yl)methoxy)pyrido[4,3-d]pyrimidin-4-yl)-1-((Z)-2-fluoro-3-(thiazol-2-yl)acryloyl)piperazin-2-yl)acetonitrile] | 30 |
| C#Cc1c(F)ccc2cc(O)cc(-c3ncc4c(N5CCN(C(=O)/C(F)=C/c6ccccn6)CC5)nc(OC[C@@H]5CCCN5CCCN=[N+]=[N-])nc4c3F)c12 [Compound 111, (S,Z)-1-(4-(2-((1-(3-azidopropyl)pyrrolidin-2-yl)methoxy)-7-(8-ethynyl-7-fluoro-3-hydroxynaphthalen-1-yl)-8-fluoropyrido[4,3-d]pyrimidin-4-yl)piperazin-1-yl)-2-fluoro-3-(pyridin-2-yl)prop-2-en-1-one] | 11 |
| N#CC[C@H]1CN(c2nc(OC[C@@]34CCCN3C[C@H](F)C4)nc3c(F)c(-c4cccc(F)c4C(F)(F)F)ncc23)CCN1C(=O)/C(F)=C/c1nccs1 [Example 71, 2-((S)-1-((Z)-2-fluoro-3-(thiazol-2-yl)acryloyl)-4-(8-fluoro-7-(3-fluoro-2-(trifluoromethyl)phenyl)-2-(((2R, 7aS)-2-fluorotetrahydro-1H-pyrrolizin-7a(5H)-yl)methoxy)pyrido[4,3-d]pyrimidin-4-yl)piperazin-2-yl)acetonitrile] | 40 |
| C#Cc1c(F)ccc2cc(O)cc(-c3ncc4c(N5CCN(C(=O)/C(F)=C/c6cnccn6)CC5)nc(OC[C@@]56CCCN5C[C@H](F)C6)nc4c3F)c12 [Example 56, (Z)-1-(4-(7-(8-ethynyl-7-fluoro-3-hydroxynaphthalen-1-yl)-8-fluoro-2-(((2R, 7aS)-2-fluorotetrahydro-1H-pyrrolizin-7a(5H)-yl)methoxy)pyrido[4,3-d]pyrimidin-4-yl)piperazin-1-yl)-2-fluoro-3-(pyrazin-2-yl)prop-2-en-1-one] | 6 |
| N#CC[C@H]1CN(c2nc(OC[C@@]34CCCN3C[C@H](F)C4)nc3c(F)c(-c4ccccc4C(F)(F)F)ncc23)CCN1C(=O)/C(F)=C/c1nccs1 [Example 32, 2-((S)-4-(8-fluoro-2-(((2R, 7aS)-2-fluorotetrahydro-1H-pyrrolizin-7a(5H)-yl)methoxy)-7-(2-(trifluoromethyl)phenyl)pyrido[4,3-d]pyrimidin-4-yl)-1-((Z)-2-fluoro-3-(thiazol-2-yl)acryloyl)piperazin-2-yl)acetonitrile] | 76 |
| C#Cc1cccc2cccc(-c3ncc4c(N5C[C@H]6CN(C(=O)/C(F)=C/c7ccccn7)C[C@H]6C5)nc(OC[C@@]56CCCN5C[C@H](F)C6)nc4c3F)c12 [Compound 100, (Z)-1-((3aR, 6aS)-5-(7-(8-ethynylnaphthalen-1-yl)-8-fluoro-2-(((2R, 7aS)-2-fluorotetrahydro-1H-pyrrolizin-7a(5H)-yl)methoxy)pyrido[4,3-d]pyrimidin-4-yl)hexahydropyrrolo[3,4-c]pyrrol-2(1H)-yl)-2-fluoro-3-(pyridin-2-yl)prop-2-en-1-one] | 5300 |
| C#Cc1c(F)ccc2cccc(-c3ncc4c(N5CCN(C(=O)/C(F)=C/c6ncccn6)C[C@@H]5C)nc(OC[C@@]56CCCN5C[C@H](F)C6)nc4c3F)c12 [Compound 90, (Z)-1-((S)-4-(7-(8-ethynyl-7-fluoronaphthalen-1-yl)-8-fluoro-2-(((2R, 7aS)-2-fluorotetrahydro-1H-pyrrolizin-7a(5H)-yl)methoxy)pyrido[4,3-d]pyrimidin-4-yl)-3-methylpiperazin-1-yl)-2-fluoro-3-(pyrimidin-2-yl)prop-2-en-1-one] | 110 |
| C#Cc1cccc2cccc(-c3ncc4c(N5CCC6(CCN6C(=O)/C(F)=C/c6ccccn6)C5)nc(OC[C@@]56CCCN5C[C@H](F)C6)nc4c3F)c12 (single isomer, unassigned) [Compound 104] | 16000 |
| N#Cc1cccc2cccc(-c3ncc4c(N5CCN(C(=O)/C(F)=C/c6nccs6)CC5)nc(OC[C@@]56CCCN5C[C@H](F)C6)nc4c3F)c12 [Example 50, 8-(8-fluoro-4-(4-((Z)-2-fluoro-3-(thiazol-2-yl)acryloyl)piperazin-1-yl)-2-(((2R, 7aS)-2-fluorotetrahydro-1H-pyrrolizin-7a(5H)-yl)methoxy)pyrido[4,3-d]pyrimidin-7yl)-1-naphthonitrile] | 840 |
| C#Cc1cccc2cccc(-c3ncc4c(N5C[C@H](C)N(C(=O)/C(F)=C/c6ccccn6)C[C@H]5C)nc(OC[C@@]56CCCN5C[C@H](F)C6)nc4c3F)c12 [Compound 83, (Z)-1-((2S,5R)-4-(7-(8-ethynylnaphthalen-1-yl)-8-fluoro-2-(((2R, 7aS)-2-fluorotetrahydro-1H-pyrrolizin-7a(5H)-yl)methoxy)pyrido[4,3-d]pyrimidin-4-yl)-2,5-dimethylpiperazin-1-yl)-2-fluoro-3-(pyridin-2-yl)prop-2-en-1-one] | 2600 |
| N#CC[C@H]1CN(c2nc(OC[C@@]34CCCN3C[C@H](F)C4)nc3c(F)c(-c4ccccc4C(F)(F)F)ncc23)CCN1C(=O)/C(F)=C/c1ccccn1 [Example 33, 2-((S)-4-(8-fluoro-2-(((2R, 7aS)-2-fluorotetrahydro-1H-pyrrolizin-7a(5H)-yl)methoxy)-7-(2-(trifluoromethyl)phenyl)pyrido[4,3-d]pyrimidin-4-yl)-1-((Z)-2-fluoro-3-(pyridin-2-yl)acryloyl)piperazin-2-yl)acetonitrile] | 75 |
| C#Cc1c(F)ccc2cc(O)cc(-c3ncc4c(N5CCN(C(=O)/C(F)=C/c6cccnn6)CC5)nc(OC[C@@]56CCCN5C[C@H](F)C6)nc4c3F)c12 [Example 55, (Z)-1-(4-(7-(8-ethynyl-7-fluoro-3-hydroxynaphthalen-1-yl)-8-fluoro-2-(((2R, 7aS)-2-fluorotetrahydro-1H-pyrrolizin-7a(5H)-yl)methoxy)pyrido[4,3-d]pyrimidin-4-yl)piperazin-1-yl)-2-fluoro-3-(pyridazin-3-yl)prop-2-en-1-one] | 2 |
| C#Cc1c(F)ccc2cc(O)cc(-c3ncc4c(N5C[C@@]6(NC(=O)/C(F)=C/c7ccccn7)CC[C@@H]5C6)nc(OC[C@@]56CCCN5C[C@H](F)C6)nc4c3F)c12 [Compound 13, (Z)—N-((1R, 4R)-2-(7-(8-ethynyl-7-fluoro-3-hydroxynaphthalen-1-yl)-8-fluoro-2-(((2R, 7aS)-2-fluorotetrahydro-1H-pyrrolizin-7a(5H)-yl)methoxy)pyrido[4,3-d]pyrimidin-4-yl)-2-azabicyclo[2.2.1]heptan-4-yl)-2-fluoro-3-(pyridin-2-yl)acrylamide] | 38 |
| C#Cc1c(F)ccc2cc(O)cc(-c3ncc4c(N5CCN(C(=O)/C(F)=C/c6nccs6)C[C@@H]5C)nc(OC[C@@]56CCCN5C[C@H](F)C6)nc4c3F)c12 [Example 64, (Z)-1-((S)-4-(7-(8-ethynyl-7-fluoro-3-hydroxynaphthalen-1-yl)-8-fluoro-2-(((2R, 7aS)-2-fluorotetrahydro-1H-pyrrolizin-7a(5H)-yl)methoxy)pyrido[4,3-d]pyrimidin-4-yl)-3-methylpiperazin-1-yl)-2-fluoro-3-(thiazol-2-yl)prop-2-en-1-one] | 7 |
